Some results are limits rather than exact numbers.

This assay deals with T1, Human Axl (Homo sapiens, UniProt P30530).
T1 construct: Human AXL (residues 464-885)
T1 sequence (P30530 1-894 Q764R): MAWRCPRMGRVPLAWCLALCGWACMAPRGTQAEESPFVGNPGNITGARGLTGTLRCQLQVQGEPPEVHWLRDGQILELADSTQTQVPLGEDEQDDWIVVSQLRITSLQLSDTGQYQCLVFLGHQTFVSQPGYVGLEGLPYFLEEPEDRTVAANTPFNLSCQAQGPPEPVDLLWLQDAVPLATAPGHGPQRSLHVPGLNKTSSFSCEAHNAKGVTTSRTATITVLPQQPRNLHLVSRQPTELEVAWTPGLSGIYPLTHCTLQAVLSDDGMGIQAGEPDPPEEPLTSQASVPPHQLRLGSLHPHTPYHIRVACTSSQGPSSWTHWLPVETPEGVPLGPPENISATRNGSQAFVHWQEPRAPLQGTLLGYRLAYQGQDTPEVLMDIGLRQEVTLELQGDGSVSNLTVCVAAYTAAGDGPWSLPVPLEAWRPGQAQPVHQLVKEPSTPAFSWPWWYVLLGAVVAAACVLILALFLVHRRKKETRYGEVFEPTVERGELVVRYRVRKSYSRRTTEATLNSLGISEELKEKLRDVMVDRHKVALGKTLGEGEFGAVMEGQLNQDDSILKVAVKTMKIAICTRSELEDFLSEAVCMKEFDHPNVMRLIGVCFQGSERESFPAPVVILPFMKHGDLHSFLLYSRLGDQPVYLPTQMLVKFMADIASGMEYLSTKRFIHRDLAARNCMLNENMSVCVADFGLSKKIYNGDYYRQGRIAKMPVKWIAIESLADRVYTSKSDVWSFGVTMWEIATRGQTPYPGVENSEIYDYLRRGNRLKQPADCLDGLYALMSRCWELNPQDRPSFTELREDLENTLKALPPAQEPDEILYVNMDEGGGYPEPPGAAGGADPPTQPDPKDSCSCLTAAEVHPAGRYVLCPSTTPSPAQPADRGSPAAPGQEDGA
Put plainly: Human AXL kinase assay (33P radiometric / HTRF KinEase). It counts as biochemical. Conditions: protocols of Examples A-1 and/or A-2.
The molecule `COCCOc1cc2nccc(Oc3ccc(NC(=O)c4cnc(C)c(C5=CCCCC5)c4O)cc3F)c2nc1OC` [Compound 34, 5-(Cyclohexen-1-yl)-N-[3-fluoro-4-[[6-methoxy-7-(2-methoxyethoxy)-1,5-naphthyridin-4-yl]oxy]phenyl]-4-hydroxy-6-methylpyridine-3-carboxamide] came in with an IC50 of at most 100 nM.

Molecule `COCCOc1cc2nccc(Oc3ccc(NC(=O)c4cnc(C)c(C5=CCOCC5)c4O)cc3F)c2nc1OC` [Compound 35, 5-(3,6-Dihydro-2H-pyran-4-yl)-N-[3-fluoro-4-[[6-methoxy-7-(2-methoxyethoxy)-1,5-naphthyridin-4-yl]oxy]phenyl]-4-hydroxy-6-methylpyridine-3-carboxamide] returned a half-maximal inhibitory concentration (IC50) of at most 100 nM.

On to `COCCOc1cc2nccc(Oc3ccc(NC(=O)c4cnc(C)c(/C=C/C5CCCC5)c4O)cc3F)c2nc1OC` [Compound 36, 5-[(E)-2-Cyclopentylethenyl]-N-[3-fluoro-4-[[6-methoxy-7-(2-methoxyethoxy)-1,5-naphthyridin-4-yl]oxy]phenyl]-4-hydroxy-6-methylpyridine-3-carboxamide], for which the IC50 is at most 100 nM.

`COCCOc1cc2nccc(Oc3ccc(NC(=O)c4cnc(C)c(/C=C/C5CC5)c4O)cc3F)c2nc1OC` [Compound 37, 5-[(E)-2-Cyclopropylethenyl]-N-[3-fluoro-4-[[6-methoxy-7-(2-methoxyethoxy)-1,5-naphthyridin-4-yl]oxy]phenyl]-4-hydroxy-6-methylpyridine-3-carboxamide] displayed a half-inhibitory concentration (IC50) of at most 100 nM.

In turn, `COc1cc2nccc(Oc3ccc(NC(=O)c4c(C)ccn(C(C)C)c4=O)cc3F)c2nc1OC` [Compound 38, N-[4-[(6,7-Dimethoxy-1,5-naphthyridin-4-yl)oxy]-3-fluorophenyl]-4-methyl-2-oxo-1-propan-2-ylpyridine-3-carboxamide] had an IC50 of 100 to 300 nM.

`COc1cc2nccc(Oc3ccc(NC(=O)c4c(C)ccn(C(C)C)c4=O)cc3)c2nc1OC` [Compound 39, N-[4-[(6,7-Dimethoxy-1,5-naphthyridin-4-yl)oxy]phenyl]-4-methyl-2-oxo-1-propan-2-ylpyridine-3-carboxamide] returned a half-inhibitory concentration (IC50) of over 300 nM.

For the molecule `COCCOc1cc2nccc(Oc3ccc(NC(=O)c4cnc(C)c(/C=C/C(C)(C)C)c4O)cc3F)c2nc1OC` [Compound 40, 5-[(E)-3,3-Dimethylbut-1-enyl]-N-[3-fluoro-4-[[6-methoxy-7-(2-methoxyethoxy)-1,5-naphthyridin-4-yl]oxy]phenyl]-4-hydroxy-6-methylpyridine-3-carboxamide], the IC50 was at most 100 nM.

Molecule `COCCOc1cc2nccc(Oc3ccc(NC(=O)c4c(C)nc(C)c(C5=CCCC5)c4O)cc3F)c2nc1OC` [Compound 41, 5-(Cyclopenten-1-yl)-N-[3-fluoro-4-[[6-methoxy-7-(2-methoxyethoxy)-1,5-naphthyridin-4-yl]oxy]phenyl]-4-hydroxy-2,6-dimethylpyridine-3-carboxamide] returned an IC50 of at most 100 nM.

`COCCOc1cc2nccc(Oc3ccc(NC(=O)c4c(C)n(C)c(C)c(C5=CCCC5)c4=O)cc3F)c2nc1OC` [Compound 42, 5-(Cyclopenten-1-yl)-N-[3-fluoro-4-[[6-methoxy-7-(2-methoxyethoxy)-1,5-naphthyridin-4-yl]oxy]phenyl]-1,2,6-trimethyl-4-oxopyridine-3-carboxamide] returned an IC50 of at most 100 nM.

`COCCOc1cc2nccc(Oc3ccc(NC(=O)c4c(C)nc(C)c(C5=CCOCC5)c4O)cc3F)c2nc1OC` [Compound 43, 5-(3,6-Dihydro-2H-pyran-4-yl)-N-[3-fluoro-4-[[6-methoxy-7-(2-methoxyethoxy)-1,5-naphthyridin-4-yl]oxy]phenyl]-4-hydroxy-2,6-dimethylpyridine-3-carboxamide] returned an IC50 of at most 100 nM.

Regarding `COCCOc1cc2nccc(Oc3ccc(NC(=O)c4c(O)c(C5=CCOCC5)c(C)[n+](C)c4C)cc3F)c2nc1OC` [Compound 44, 5-(3,6-Dihydro-2H-pyran-4-yl)-N-[3-fluoro-4-[[6-methoxy-7-(2-methoxyethoxy)-1,5-naphthyridin-4-yl]oxy]phenyl]-1,2,6-trimethyl-4-oxopyridine-3-carboxamide], the half-maximal inhibitory concentration (IC50) was at most 100 nM.

Consider `COCCOc1cc2nccc(Oc3ccc(NC(=O)c4c(C)n(C)c(C)c(/C=C/C(C)(C)C)c4=O)cc3F)c2nc1OC` [Compound 45, 5-[(E)-3,3-Dimethylbut-1-enyl]-N-[3-fluoro-4-[[6-methoxy-7-(2-methoxyethoxy)-1,5-naphthyridin-4-yl]oxy]phenyl]-1,2,6-trimethyl-4-oxopyridine-3-carboxamide], for which the IC50 was at most 100 nM.

In turn, `COc1cc2nccc(Oc3ccc(NC(=O)c4c(C)n(C)c(C)c(C5CC5)c4=O)cc3F)c2nc1OC` [Compound 46, 5-Cyclopropyl-N-[4-[(6,7-dimethoxy-1,5-naphthyridin-4-yl)oxy]-3-fluorophenyl]-1,2,6-trimethyl-4-oxopyridine-3-carboxamide] returned an IC50 of 100 to 300 nM.

`COc1cc2nccc(Oc3cc(F)c(NC(=O)c4c(C)n(C)c(C)c(C5CC5)c4=O)cc3F)c2nc1OC` [Compound 47, 5-Cyclopropyl-N-[4-[(6,7-dimethoxy-1,5-naphthyridin-4-yl)oxy]-2,5-difluorophenyl]-1,2,6-trimethyl-4-oxopyridine-3-carboxamide] gave an IC50 of at most 100 nM.

`COc1cc2nccc(Oc3ccc(NC(=O)c4c(C)n(C)c(C)c(C5CC5)c4=O)cc3)c2nc1OC` [Compound 48, 5-Cyclopropyl-N-[4-[(6,7-dimethoxy-1,5-naphthyridin-4-yl)oxy]phenyl]-1,2,6-trimethyl-4-oxopyridine-3-carboxamide] came in with an IC50 of at most 100 nM.

Molecule `COc1cc2nccc(Oc3ccc(NC(=O)c4c(C)n(C)c(C)c(/C=C/C(C)(C)C)c4=O)cc3F)c2nc1OC` [Compound 49, N-[4-[(6,7-Dimethoxy-1,5-naphthyridin-4-yl)oxy]-3-fluorophenyl]-5-[(E)-3,3-dimethylbut-1-enyl]-1,2,6-trimethyl-4-oxopyridine-3-carboxamide] gave a half-inhibitory concentration (IC50) of at most 100 nM.

`COc1cc2nccc(Oc3ccc(NC(=O)c4c(C)n(C)c(C)c(/C=C/C5CC5)c4=O)cc3F)c2nc1OC` [Compound 50, 5-[(E)-2-Cyclopropylethenyl]-N-[4-[(6,7-dimethoxy-1,5-naphthyridin-4-yl)oxy]-3-fluorophenyl]-1,2,6-trimethyl-4-oxopyridine-3-carboxamide] showed an IC50 of at most 100 nM.

With `COCCOc1cc2nccc(Oc3ccc(NC(=O)c4c(C)n(C)c(C)c(/C=C/C5CC5)c4=O)cc3F)c2nc1OC` [Compound 51, 5-[(E)-2-Cyclopropylethenyl]-N-[3-fluoro-4-[[6-methoxy-7-(2-methoxyethoxy)-1,5-naphthyridin-4-yl]oxy]phenyl]-1,2,6-trimethyl-4-oxopyridine-3-carboxamide], the 50% inhibitory concentration (IC50) is at most 100 nM.

`COc1cc2nccc(Oc3ccc(NC(=O)c4c5n(c(C)c(C6=CCOCC6)c4=O)CCOC5)cc3F)c2nc1OC` [Compound 79, 7-(3,6-Dihydro-2H-pyran-4-yl)-N-[4-[(6,7-dimethoxy-1,5-naphthyridin-4-yl)oxy]-3-fluorophenyl]-6-methyl-8-oxo-3,4-dihydro-1H-pyrido[2,1-c][1,4]oxazine-9-carboxamide] registered a half-inhibitory concentration (IC50) of at most 100 nM.

`COc1cc2nccc(Oc3ccc(NC(=O)c4c5n(c(C)c(C6=CCCCC6)c4=O)CCOC5)cc3F)c2nc1OC` [Compound 80, 7-(Cyclohexen-1-yl)-N-[4-[(6,7-dimethoxy-1,5-naphthyridin-4-yl)oxy]-3-fluorophenyl]-6-methyl-8-oxo-3,4-dihydro-1H-pyrido[2,1-c][1,4]oxazine-9-carboxamide] yielded a half-inhibitory concentration (IC50) of at most 100 nM.

Turning to `COc1cnc2c(Oc3ccc(NC(=O)c4c(C)n(C)c(C)c(C#N)c4=O)cc3F)ccnc2c1` [Compound 81, 5-Cyano-N-[3-fluoro-4-[(7-methoxy-1,5-naphthyridin-4-yl)oxy]phenyl]-1,2,6-trimethyl-4-oxopyridine-3-carboxamide], the IC50 was over 300 nM.

`COc1cc2nccc(Oc3ccc(NC(=O)c4c(C)n(C)c(C)c(C#N)c4=O)cc3)c2nc1OC` [Compound 82, 5-Cyano-N-[4-[(6,7-dimethoxy-1,5-naphthyridin-4-yl)oxy]phenyl]-1,2,6-trimethyl-4-oxopyridine-3-carboxamide] had an IC50 of over 300 nM.

As for `COCCOc1cc2nccc(Oc3cc(F)c(NC(=O)c4c(C)n(C)c(C)c(C#N)c4=O)cc3F)c2nc1OC` [Compound 83, 5-Cyano-N-[2,5-difluoro-4-[[6-methoxy-7-(2-methoxyethoxy)-1,5-naphthyridin-4-yl]oxy]phenyl]-1,2,6-trimethyl-4-oxopyridine-3-carboxamide], the IC50 was in the range of 100 to 300 nM.

`COc1cc2nccc(Oc3ccc(NC(=O)c4c(C)nc(C)c(C(N)=O)c4O)cc3F)c2nc1OC` [Compound 84, 3-N-[4-[(6,7-Dimethoxy-1,5-naphthyridin-4-yl)oxy]-3-fluorophenyl]-4-hydroxy-2,6-dimethylpyridine-3,5-dicarboxamide] yielded an IC50 of over 300 nM.

Source of the values: patent US20240158393A1, “PYRIDONE COMPOUNDS AND METHODS OF USE” (Exelixis, Inc., priority 2021, published 2024).
